Source: ChEMBL document CHEMBL1201862, “PubChem BioAssay data set” (2004)
Activity calls are given as the source filed them.

Columns and labels:
[1] = system: INS1; assay: INS-1E survival protection against cytokine death – cell-based, luminescence, retest, dose response (AID 449756); type: functional; details: Rattus norvegicus;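 also: cell death triggered by IL-1 beta plus TNF-alpha plus IFN-gamma mixture; protective hits raise ATP signal compared with cytokine alone wells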
[2] = viability loss of HMLE_sh_eGFP cells – cell-based, luminescence, counter-screen for HMLE_sh_ECad selective toxicity project, dose response (AID 463074); type: functional, Homo sapiens;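 also: HMLE human mammary epithelial cells expressing control shRNA against eGFP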
[3] = Luminescence Cell-Based Dose Retest to Confirm Inhibitors of Cancer Stem Cells. [Related pubchem assays (depositor defined):AID2717, AID2721]; type: functional; details: Homo sapiens
[4] = molecular target: Dual specificity tyrosine-phosphorylation-regulated kinase 1A (Rattus norvegicus, UniProt Q63470); type: biochemical, Homo sapiens
[5] = molecular target: Dual specificity protein kinase CLK1 (Homo sapiens, UniProt P49759); assay: inhibition of human CLK1 activity – biochemical, cherry-picked samples, selectivity assay for Dyrk1A inhibitor project, dose response (AID 588811)
[6] = viability of uninfected HEp-2 cells – cell-based, HTS, cytotoxicity control for RSV inhibitor project, dose response (AID 2410); type: functional; details: human respiratory syncytial virus
[7] = molecular target: Genome polyprotein (dengue virus type 2, UniProt P29990); assay: flavivirus cap methylation enzyme inhibition – biochemical, confirmation dose response, primary screen (AID 588689); type: functional
[8] = molecular target: T1, DNA topoisomerase (Yersinia pestis, UniProt A0A2S9PM60); assay: Yersinia topoisomerase I cleavage product accumulation – biochemical, cherry-pick, dose response (AID 588525)
T1 sequence (A0A2S9PM60 whole entry): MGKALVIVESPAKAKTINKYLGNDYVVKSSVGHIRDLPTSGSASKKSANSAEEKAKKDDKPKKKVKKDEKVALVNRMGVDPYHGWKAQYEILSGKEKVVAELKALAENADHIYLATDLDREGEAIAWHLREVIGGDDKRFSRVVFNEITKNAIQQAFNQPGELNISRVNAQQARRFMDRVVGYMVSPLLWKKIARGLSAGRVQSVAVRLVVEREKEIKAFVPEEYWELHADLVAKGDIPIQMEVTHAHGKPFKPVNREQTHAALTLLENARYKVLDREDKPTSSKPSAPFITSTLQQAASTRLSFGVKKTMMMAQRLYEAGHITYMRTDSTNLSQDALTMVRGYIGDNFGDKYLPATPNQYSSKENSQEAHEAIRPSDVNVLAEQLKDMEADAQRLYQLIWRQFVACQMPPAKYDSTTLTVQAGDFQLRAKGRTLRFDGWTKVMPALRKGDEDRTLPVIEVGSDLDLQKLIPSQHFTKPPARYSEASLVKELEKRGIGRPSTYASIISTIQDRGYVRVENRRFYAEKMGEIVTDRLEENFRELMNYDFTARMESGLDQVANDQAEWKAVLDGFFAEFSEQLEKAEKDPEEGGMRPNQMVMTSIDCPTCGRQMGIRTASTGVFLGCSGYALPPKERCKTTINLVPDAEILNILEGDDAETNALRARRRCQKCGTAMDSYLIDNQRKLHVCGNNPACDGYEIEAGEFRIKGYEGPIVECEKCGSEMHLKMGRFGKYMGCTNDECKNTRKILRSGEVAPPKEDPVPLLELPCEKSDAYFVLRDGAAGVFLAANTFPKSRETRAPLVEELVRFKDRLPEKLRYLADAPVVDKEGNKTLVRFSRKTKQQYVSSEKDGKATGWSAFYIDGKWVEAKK

[9] = molecular target: T2, Low molecular weight phosphotyrosine protein phosphatase (Homo sapiens, UniProt P24666); type: functional; details: read-out: IC50_Mean
T2 sequence (P24666 whole entry): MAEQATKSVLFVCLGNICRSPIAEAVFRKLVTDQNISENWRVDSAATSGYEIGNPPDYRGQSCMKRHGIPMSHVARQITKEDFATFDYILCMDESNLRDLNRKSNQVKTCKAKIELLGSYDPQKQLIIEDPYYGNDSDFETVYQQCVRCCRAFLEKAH

[10] = molecular target: T2, Low molecular weight phosphotyrosine protein phosphatase; type: functional; details: read-out: IC50_Mean; remark: listed apart in the source
[11] = molecular target: NS3 (Hepatitis C virus, UniProt A3EZJ3); assay: PubChem AID 2173; parameters: species or system Hepacivirus hominis
[12] = Late-stage probe development counterscreen for inhibitors of the Hepatitis C Virus non-structural protein 3 helicase (NS3): luminescence-based cell-based dose response assay to determine whether compounds that inhibit replication of HCV RNA replicon are cytotoxic. [Related pubchem assays (depositor defined):AID1800, AID1830, AID1845, AID1943, AID1945, AID2172, AID2173, AID2474, AID2476]; type: functional
[13] = system: Vero; assay: viability of Vero cells under compound – cytotoxicity control for flavivirus capping enzyme inhibitors (AID 588742); type: functional; details: Chlorocebus sabaeus
[14] = molecular target: Mu-type opioid receptor (Homo sapiens, UniProt P35372); assay: (§1) Counterscreen for agonists of heterodimerization of the mu 1 (OPRM1) and delta 1 (OPRD1) opioid receptors: Luminescence-based cell-based high throughput dose response assay to identify agonists of OPRM1 homodimerization.; type: functional
[15] = molecular target: Delta-type opioid receptor (Homo sapiens, UniProt P41143); assay: as §1, with “of OPRD1” for “of OPRM1”, “homodimerization. [Related pubchem assays (depositor defined):AID504326, AID504355, AID504692, AID504904, AID504905]” for “homodimerization.”; type: functional
[16] = molecular target: Cytochrome P450 2D6 (Homo sapiens, UniProt P10635);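 also: CYP2D6 member of a cytochrome P450 panel assay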
[17] = molecular target: Voltage-gated inwardly rectifying potassium channel KCNH2 (Homo sapiens, UniProt Q12809); details: Potency;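 also: confirmatory quantitative high-throughput screen measuring inhibition of hERG channel activity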
[18] = molecular target: Paired box protein Pax-8 (Homo sapiens, UniProt Q06710); assay: PAX8 transcriptional activity inhibition in RMG-I – RMG-I cells, luciferase, cherry-pick, dose response (AID 687027); type: functional, cell-based;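 also: luciferase reporter driven by Pax8 target thyroperoxidase promoter measured by SteadyGlo luminescence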
[19] = viability loss in CEM21 cells – cell-based, CellTiter-Glo luminescence, cherry-picked, cytotoxicity control for viral fusion inhibitor project, dose response (AID 652042); type: functional;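 also: potency for signal decrease meaning cytotoxicity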
[20] = blockers of HIV-1 envelope-mediated cell-cell fusion – cherry-pick, dose response (AID 652057); type: functional, cell-based
[21] = molecular target: 5-hydroxytryptamine receptor 5A (Homo sapiens, UniProt P47898); assay: Counterscreen for agonists of OPRM1-OPRD1 heterodimerization: luminescence-based cell-based high throughput dose response assay to identify agonists of 5-hydroxytryptamine (serotonin) 5A receptor (HTR5A). [Related pubchem assays (depositor defined):AID504326, AID504355, AID504692, AID504904, AID504905]; type: functional
[22] = HEK-293T viability loss, compound-treated – cell-based, uHTS hits, cytotoxicity control for B/T-cell NF-kB inhibitor project, dose response (AID 489019); type: functional;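 also: IC50 reflects cytotoxicity as loss of cell viability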
[23] = system: A-375; assay: MITF: Counter assay: A375 proliferation Measured in Cell-Based System Using Plate Reader - 2084-03_Inhibitor_Dose_DryPowder_Activity. [Related pubchem assays (depositor defined):AID488944]; type: functional; details: Homo sapiens
[24] = non-specific 3'UTR reporter inhibition in Clone20-Shn3RL – cell-based, Renilla luciferase, cherry-picked, counter-screen for Shn3 inhibitor project, dose response (AID 624133); type: functional
[25] = molecular target: Photoreceptor-specific nuclear receptor (Homo sapiens, UniProt Q9Y5X4); type: functional, cell-based;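 also: CHO-S cells with Gal4-NCOR and VP16-NR2E3 two-hybrid luciferase reporter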
[26] = system: Jurkat; assay: blockers of NF-kB activation in T cells – Jurkat, luciferase reporter, luminescence, B- and T-cell, dose response (AID 489004); type: functional, cell-based; details: Homo sapiens;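 also: NF-kB luciferase reporter Jurkat cells stimulated with PMA plus ionomycin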
[27] = system: A-375; assay: proliferation inhibition in MITF-low A375 cells – cell-based, cherry-pick samples, set 2, counter-screen for MITF modulator project, dose response (AID 540335); type: functional; details: Homo sapiens
[28] = molecular target: T3, Microphthalmia-associated transcription factor (Homo sapiens, UniProt O75030); assay: reducers of TRPM1 reporter luminescence, concentration series – cell-based, SK-MEL-5, cherry-picked, set 3, MITF inhibitor project, dose response (AID 493073); type: functional;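 also: SK-MEL-5 melanoma cells with luciferase driven by the MITF target TRPM1 promoter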
T3 sequence (O75030 whole entry): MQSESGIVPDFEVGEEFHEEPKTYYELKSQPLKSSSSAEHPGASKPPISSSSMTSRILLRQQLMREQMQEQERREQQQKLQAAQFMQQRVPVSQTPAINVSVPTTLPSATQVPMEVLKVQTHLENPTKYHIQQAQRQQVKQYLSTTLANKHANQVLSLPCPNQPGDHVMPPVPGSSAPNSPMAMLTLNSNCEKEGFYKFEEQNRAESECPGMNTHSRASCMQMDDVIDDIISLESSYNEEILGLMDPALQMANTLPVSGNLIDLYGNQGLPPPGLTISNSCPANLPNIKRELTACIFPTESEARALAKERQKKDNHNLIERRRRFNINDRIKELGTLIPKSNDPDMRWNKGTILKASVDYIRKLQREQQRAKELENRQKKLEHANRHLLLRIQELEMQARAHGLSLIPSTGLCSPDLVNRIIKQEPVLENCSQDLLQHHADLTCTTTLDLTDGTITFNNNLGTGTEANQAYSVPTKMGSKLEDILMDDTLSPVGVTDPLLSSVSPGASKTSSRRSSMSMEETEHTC

[29] = reduction of Shn3 3'UTR-driven luciferase in osteoblasts – cell-based, Clone20 osteoblasts, firefly luciferase, cherry-picked, dose response (AID 624132); type: functional;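 also: firefly luciferase luminescence from reporter carrying the Shn3 3'UTR in osteoblasts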

Chain of Mu-type opioid receptor (P35372 whole entry): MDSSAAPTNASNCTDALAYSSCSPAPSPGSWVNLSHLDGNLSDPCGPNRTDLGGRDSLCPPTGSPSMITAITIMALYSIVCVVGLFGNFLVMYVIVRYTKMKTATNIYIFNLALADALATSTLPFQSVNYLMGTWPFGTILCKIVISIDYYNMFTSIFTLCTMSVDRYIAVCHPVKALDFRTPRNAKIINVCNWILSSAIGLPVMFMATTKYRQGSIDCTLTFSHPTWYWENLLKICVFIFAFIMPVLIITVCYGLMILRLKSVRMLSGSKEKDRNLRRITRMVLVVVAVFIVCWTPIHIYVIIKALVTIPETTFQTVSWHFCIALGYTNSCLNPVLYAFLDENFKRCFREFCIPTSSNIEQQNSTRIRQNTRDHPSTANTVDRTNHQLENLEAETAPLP
Chain of 5-hydroxytryptamine receptor 5A (P47898 whole entry): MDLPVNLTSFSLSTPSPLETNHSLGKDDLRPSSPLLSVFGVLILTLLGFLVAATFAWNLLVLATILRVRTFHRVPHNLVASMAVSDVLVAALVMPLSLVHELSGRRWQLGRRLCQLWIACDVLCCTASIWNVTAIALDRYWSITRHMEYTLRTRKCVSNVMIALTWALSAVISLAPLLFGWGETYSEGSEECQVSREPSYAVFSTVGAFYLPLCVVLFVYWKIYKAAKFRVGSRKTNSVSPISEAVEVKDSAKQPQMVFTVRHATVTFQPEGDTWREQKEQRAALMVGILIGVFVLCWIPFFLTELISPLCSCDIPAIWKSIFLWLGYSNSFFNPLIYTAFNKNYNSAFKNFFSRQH
Chain of NS3 (A3EZJ3 whole entry): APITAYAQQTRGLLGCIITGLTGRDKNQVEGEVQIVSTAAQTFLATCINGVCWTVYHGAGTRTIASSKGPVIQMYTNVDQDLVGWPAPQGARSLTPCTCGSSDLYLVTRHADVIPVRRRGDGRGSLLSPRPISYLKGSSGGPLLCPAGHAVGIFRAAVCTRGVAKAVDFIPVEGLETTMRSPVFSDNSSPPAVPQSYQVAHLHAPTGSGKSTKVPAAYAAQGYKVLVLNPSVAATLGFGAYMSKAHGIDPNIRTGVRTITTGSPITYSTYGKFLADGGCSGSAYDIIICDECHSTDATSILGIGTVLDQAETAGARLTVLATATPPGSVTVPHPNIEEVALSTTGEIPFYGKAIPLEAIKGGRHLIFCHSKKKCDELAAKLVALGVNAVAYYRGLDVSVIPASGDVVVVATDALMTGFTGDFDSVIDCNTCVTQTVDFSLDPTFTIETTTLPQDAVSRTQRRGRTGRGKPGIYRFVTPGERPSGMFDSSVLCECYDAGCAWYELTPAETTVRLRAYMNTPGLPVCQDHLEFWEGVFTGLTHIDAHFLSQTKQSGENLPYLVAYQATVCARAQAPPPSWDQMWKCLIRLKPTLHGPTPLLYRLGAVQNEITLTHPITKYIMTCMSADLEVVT
Chain of Cytochrome P450 2D6 (P10635 whole entry): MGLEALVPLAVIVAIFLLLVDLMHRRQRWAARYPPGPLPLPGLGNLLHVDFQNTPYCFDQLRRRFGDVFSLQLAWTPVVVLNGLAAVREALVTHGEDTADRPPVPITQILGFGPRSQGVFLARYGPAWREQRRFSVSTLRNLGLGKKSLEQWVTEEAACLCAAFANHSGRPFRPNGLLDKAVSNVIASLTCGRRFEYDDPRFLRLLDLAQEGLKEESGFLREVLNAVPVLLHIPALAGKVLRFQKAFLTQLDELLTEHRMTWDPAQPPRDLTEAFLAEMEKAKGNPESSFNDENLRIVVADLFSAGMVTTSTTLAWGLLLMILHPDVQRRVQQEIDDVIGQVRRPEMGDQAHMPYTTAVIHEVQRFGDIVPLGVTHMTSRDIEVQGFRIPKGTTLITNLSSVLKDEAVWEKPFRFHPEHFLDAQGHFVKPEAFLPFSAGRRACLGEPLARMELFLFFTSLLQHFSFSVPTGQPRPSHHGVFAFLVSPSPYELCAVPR
Chain of Paired box protein Pax-8 (Q06710 whole entry, the tested form may be a part): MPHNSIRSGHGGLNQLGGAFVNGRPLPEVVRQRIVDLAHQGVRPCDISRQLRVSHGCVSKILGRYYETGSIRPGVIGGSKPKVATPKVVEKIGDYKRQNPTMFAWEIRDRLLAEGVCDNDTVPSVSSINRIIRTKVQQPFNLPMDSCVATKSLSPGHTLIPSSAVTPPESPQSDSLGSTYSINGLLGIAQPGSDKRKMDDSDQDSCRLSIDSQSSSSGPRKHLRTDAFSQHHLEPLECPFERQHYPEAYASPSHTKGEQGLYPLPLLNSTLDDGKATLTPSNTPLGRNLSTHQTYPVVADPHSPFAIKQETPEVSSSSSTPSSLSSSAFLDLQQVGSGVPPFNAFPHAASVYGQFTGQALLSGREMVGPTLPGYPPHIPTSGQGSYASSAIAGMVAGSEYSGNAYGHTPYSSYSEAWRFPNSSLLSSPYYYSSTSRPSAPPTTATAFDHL
Chain of Genome polyprotein (P29990 2492-3391 limits assumed): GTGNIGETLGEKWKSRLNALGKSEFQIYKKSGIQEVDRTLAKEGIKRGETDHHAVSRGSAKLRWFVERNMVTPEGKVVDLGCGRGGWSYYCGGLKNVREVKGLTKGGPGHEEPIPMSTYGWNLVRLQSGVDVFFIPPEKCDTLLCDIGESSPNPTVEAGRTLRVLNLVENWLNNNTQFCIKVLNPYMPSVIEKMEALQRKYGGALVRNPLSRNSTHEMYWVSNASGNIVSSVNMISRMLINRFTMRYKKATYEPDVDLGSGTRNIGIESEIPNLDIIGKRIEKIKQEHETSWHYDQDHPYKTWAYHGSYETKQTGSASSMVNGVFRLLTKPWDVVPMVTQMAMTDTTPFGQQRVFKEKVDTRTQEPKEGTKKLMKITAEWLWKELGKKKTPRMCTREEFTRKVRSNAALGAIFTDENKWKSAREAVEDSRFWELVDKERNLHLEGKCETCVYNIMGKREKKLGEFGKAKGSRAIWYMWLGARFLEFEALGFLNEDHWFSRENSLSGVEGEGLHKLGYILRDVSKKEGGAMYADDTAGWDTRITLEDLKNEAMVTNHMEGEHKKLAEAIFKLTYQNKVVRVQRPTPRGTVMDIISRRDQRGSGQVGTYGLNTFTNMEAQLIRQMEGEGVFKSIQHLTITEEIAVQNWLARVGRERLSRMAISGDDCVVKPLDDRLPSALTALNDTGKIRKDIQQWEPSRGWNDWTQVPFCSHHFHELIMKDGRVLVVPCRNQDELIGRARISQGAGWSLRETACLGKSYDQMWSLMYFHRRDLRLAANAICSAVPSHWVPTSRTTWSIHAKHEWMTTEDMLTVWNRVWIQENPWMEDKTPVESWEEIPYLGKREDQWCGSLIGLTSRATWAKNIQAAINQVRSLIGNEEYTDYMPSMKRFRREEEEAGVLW
Chain of Photoreceptor-specific nuclear receptor (Q9Y5X4 whole entry, the tested form may be a part): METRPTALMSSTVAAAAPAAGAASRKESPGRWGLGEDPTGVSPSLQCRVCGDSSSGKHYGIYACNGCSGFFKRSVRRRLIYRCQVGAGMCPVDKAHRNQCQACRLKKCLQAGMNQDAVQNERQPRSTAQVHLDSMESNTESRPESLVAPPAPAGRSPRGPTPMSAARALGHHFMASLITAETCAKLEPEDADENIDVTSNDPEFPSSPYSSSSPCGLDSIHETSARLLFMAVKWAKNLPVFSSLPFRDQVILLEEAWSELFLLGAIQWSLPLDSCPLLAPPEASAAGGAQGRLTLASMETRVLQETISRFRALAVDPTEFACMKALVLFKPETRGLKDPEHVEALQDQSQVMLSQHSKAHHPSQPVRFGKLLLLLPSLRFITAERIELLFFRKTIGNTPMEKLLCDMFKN
Chain of Dual specificity protein kinase CLK1 (P49759 whole entry): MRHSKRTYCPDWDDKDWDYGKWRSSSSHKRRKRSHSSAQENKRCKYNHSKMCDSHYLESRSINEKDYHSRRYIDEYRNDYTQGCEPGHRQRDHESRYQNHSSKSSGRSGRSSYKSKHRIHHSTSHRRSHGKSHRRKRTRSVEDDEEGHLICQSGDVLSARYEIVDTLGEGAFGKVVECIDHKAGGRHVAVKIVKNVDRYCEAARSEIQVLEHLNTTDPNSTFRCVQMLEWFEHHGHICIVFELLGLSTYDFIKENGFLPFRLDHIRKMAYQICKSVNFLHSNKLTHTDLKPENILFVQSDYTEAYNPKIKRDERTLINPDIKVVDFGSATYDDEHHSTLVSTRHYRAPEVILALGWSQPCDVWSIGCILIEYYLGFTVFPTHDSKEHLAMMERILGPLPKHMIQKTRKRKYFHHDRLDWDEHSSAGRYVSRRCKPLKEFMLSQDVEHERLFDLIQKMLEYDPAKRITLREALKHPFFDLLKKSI
Chain of Delta-type opioid receptor (P41143 whole entry): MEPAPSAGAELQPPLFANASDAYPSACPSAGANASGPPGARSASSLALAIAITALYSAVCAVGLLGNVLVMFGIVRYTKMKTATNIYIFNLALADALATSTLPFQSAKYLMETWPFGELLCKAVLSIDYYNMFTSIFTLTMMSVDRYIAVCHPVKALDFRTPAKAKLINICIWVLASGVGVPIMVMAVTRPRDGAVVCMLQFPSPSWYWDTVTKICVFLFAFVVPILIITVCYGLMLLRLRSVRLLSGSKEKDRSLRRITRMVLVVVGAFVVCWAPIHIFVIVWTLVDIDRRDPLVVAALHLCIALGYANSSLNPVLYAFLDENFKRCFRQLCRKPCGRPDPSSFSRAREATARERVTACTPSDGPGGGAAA

c1ccc(N2CCN(CC3CCCCC3)CC2)cc1
AC50 [1]: 91.4 µM (active)
AC50 [2]: 95.2 µM (active)
AC50 [3]: 25.3 µM (active)

O=c1cc(-c2ccccc2Cl)oc2c(NS(=O)(=O)c3ccccc3C(F)(F)F)ccc(O)c12
AC50 [4]: 65.4 µM (active)
AC50 [5]: 18.9 µM (active)
CC50 [6]: 48.5 µM (active)

CCCCCOc1ccc(C2C(C(=O)c3ccc(C)o3)=C(O)C(=O)N2c2cc(C)on2)cc1 (centres undefined)
IC50 [7]: 31.6 µM (active)
AC50 [8]: 6.14 µM (active)
IC50 [9]: 2.21 µM (active)
IC50 [10]: > 80 µM (inactive)
IC50 [11]: 2.44 µM (active)
CC50 [12]: > 100 µM (inactive)
CC50 [13]: > 40 µM (active)

CCN(c1nc(N)c(C(=O)NC(=N)N)nc1Cl)C(C)C [5-(N-ETHYL-N-ISOPROPYL)AMILORIDE]
EC50 [14]: > 92.5 µM (inactive)
EC50 [15]: 64.1 µM (inactive)
AC50 [16]: 31.6 µM (inconclusive)
AC50 [17]: 35.5 µM (inconclusive)
AC50 [18]: 20.9 µM (active)
AC50 [19]: 63.8 µM (active)
AC50 [20]: 1.98 µM (active)
EC50 [21]: 85.8 µM (inactive)

C=CCn1c(C)cc(C(=O)CN2C(=O)c3ccccc3S2(=O)=O)c1C
IC50 [22]: > 80 µM (inactive)
AC50 [23]: > 35 µM (active)
AC50 [24]: 23.2 µM (active)
IC50 [25]: 2.46 µM (active)
IC50 [26]: 1.17 µM (active)
AC50 [27]: > 35 µM (active)
AC50 [28]: 0.666 µM (active)
AC50 [29]: 0.974 µM (active)
